pIC50: −log10 of the molar value. Starred links: 1 amine or outer side, 2 acyl side, 3 side chain; linkers in the order of their positions; H or OH if unused. Positions of bridges follow the written chain, without caps; N, C: chain ends. Non-standard residues stand in square brackets, D forms with d. Residues, ends and D or L forms follow the SMILES beside them. Groups on a side chain read outwards from the residue. *: point of attachment. Trp(1-CH2CO2Me) = COC(=O)Cn1cc(C[C@H](N)C(=O)O)c2ccccc21; Trp(1-CH2COOH) = N[C@@H](Cc1cn(CC(=O)O)c2ccccc12)C(=O)O; Benzoyl(2-(4-MeOPh)) = COc1ccc(-c2ccccc2C(=O)*)cc1; Benzoyl(4-F,3-CF3) = O=C(c1ccc(F)c(C(F)(F)F)c1)*; Benzofuran(2-CO) = O=C(c1cc2ccccc2o1)*; X65 = CC(C)(C)OC(=O)Nc1ccc(NC(=S)*)cc1; X67 = S=C(Nc1c(Cl)c(Cl)cc(Cl)c1Cl)*; X95 = O=[N+]([O-])c1cccc(NC(=S)*)c1; Hyp = O=C(O)[C@@H]1C[C@@H](O)CN1; X43 = S=C(Nc1ccccc1Oc1ccccc1)*; X60 = Cc1cc2cc(NC(=S)*)ccc2o1; NMeNle = CCCC[C@H](NC)C(=O)O; X92 = FC(F)(F)c1cc(Cl)ccc1N*; X9 = Fc1ccc(NC(=S)*)c(Cl)c1; X5 = S=C(Nc1cccc2ccccc12)*; X59 = S=C(Nc1ccc2nsnc2c1)*; NMeA = CN[C@@H](C)C(=O)O; Dab = NCC[C@H](N)C(=O)O; Dap = NC[C@H](N)C(=O)O; CO = O=C([*:1])[*:2]
molecular target: T1, PD-1/PD-L1 (Homo sapiens, UniProt Q9NZQ7); test: PD-1/PD-L1 Homogenous Time-Resolved Fluorescence (HTRF) binding assay; conditions: not given
T1 construct: TVMV protease site linker (C); made in house; host or cells: HEK293T cells
Outline: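 Compounds preincubated 15 min with PD-L1-His (10 nM final), then PD-1-Ig (20 nM final) added for 15 min in dPBS with 0.1% BSA, 0.05% Tween-20. Detection by Eu-cryptate anti-Ig (1 nM) and APC anti-His (20 nM) HTRF.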

T1 sequence (Q9NZQ7 18-239): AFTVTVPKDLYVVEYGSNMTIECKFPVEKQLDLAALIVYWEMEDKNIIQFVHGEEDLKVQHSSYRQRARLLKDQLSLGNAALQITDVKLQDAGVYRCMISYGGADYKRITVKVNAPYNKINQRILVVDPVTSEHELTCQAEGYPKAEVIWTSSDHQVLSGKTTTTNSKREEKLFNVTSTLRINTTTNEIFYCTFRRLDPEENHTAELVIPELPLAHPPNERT

`CCCC[C@H]1C(=O)N(C)[C@@H](CCCC)C(=O)N[C@@H](CC(C)C)C(=O)N[C@H](C(=O)NCC(N)=O)CSCC(=O)N[C@@H](Cc2ccc(O)cc2)C(=O)N(C)[C@@H](C)C(=O)N[C@@H](CC(N)=O)C(=O)N2CCC[C@H]2C(=O)N[C@@H](CNC(=S)Nc2cccc([N+](=O)[O-])c2)C(=O)N[C@@H](CC(C)C)C(=O)N2C[C@H](O)C[C@H]2C(=O)N[C@@H](Cc2c[nH]c3ccccc23)C(=O)N[C@@H](CCNC(=S)Nc2cccc([N+](=O)[O-])c2)C(=O)N[C@@H](Cc2cn(CC(=O)O)c3ccccc23)C(=O)N1C` [Example 1036] ({CH2CO}-Y[NMeA]NP[Dap](X95)L[Hyp]W[Dab](X95)[Trp(1-CH2COOH)][NMeNle][NMeNle]LCG-NH2; thioether N-14) was tested. Which pIC50 did it give?
The pIC50 was 8.59.

same assay, conditions: PD-L1-His 10 nM pre-incubated with inhibitor, PD-1-Ig 20 nM; read-out: HTRF IC50

`CCCC[C@H]1C(=O)N(C)[C@@H](CCCC)C(=O)N[C@@H](CC(C)C)C(=O)N[C@H](C(=O)NCC(N)=O)CSCC(=O)N[C@@H](Cc2ccc(O)cc2)C(=O)N(C)[C@@H](C)C(=O)N[C@@H](CC(N)=O)C(=O)N2CCC[C@H]2C(=O)N[C@@H](CNC(=S)Nc2ccc3nsnc3c2)C(=O)N[C@@H](CC(C)C)C(=O)N2C[C@H](O)C[C@H]2C(=O)N[C@@H](Cc2c[nH]c3ccccc23)C(=O)N[C@@H](CCNC(=S)Nc2ccc3nsnc3c2)C(=O)N[C@@H](Cc2cn(CC(=O)O)c3ccccc23)C(=O)N1C` [Example 3008] ({CH2CO}-Y[NMeA]NP[Dap](X59)L[Hyp]W[Dab](X59)[Trp(1-CH2COOH)][NMeNle][NMeNle]LCG-NH2; thioether N-14) was tested. Which pIC50 did it give?
The pIC50 was 8.19.

With `CCCC[C@H]1C(=O)N(C)[C@@H](CCCC)C(=O)N[C@@H](CC(C)C)C(=O)N[C@H](C(=O)NCC(N)=O)CSCC(=O)N[C@@H](Cc2ccc(O)cc2)C(=O)N(C)[C@@H](C)C(=O)N[C@@H](CC(N)=O)C(=O)N2CCC[C@H]2C(=O)N[C@@H](CNC(=S)Nc2ccc(F)cc2Cl)C(=O)N[C@@H](CC(C)C)C(=O)N2C[C@H](O)C[C@H]2C(=O)N[C@@H](Cc2c[nH]c3ccccc23)C(=O)N[C@@H](CCN)C(=O)N[C@@H](Cc2cn(CC(=O)O)c3ccccc23)C(=O)N1C` [Example 1030] ({CH2CO}-Y[NMeA]NP[Dap](X9)L[Hyp]W[Dab][Trp(1-CH2COOH)][NMeNle][NMeNle]LCG-NH2; thioether N-14) as the compound, how does the pIC50 read?
Its pIC50 is 8.59.

With `CCCC[C@H]1C(=O)N(C)[C@@H](CCCC)C(=O)N[C@@H](CC(C)C)C(=O)N[C@H](C(=O)NCC(N)=O)CSCC(=O)N[C@@H](Cc2ccc(O)cc2)C(=O)N(C)[C@@H](C)C(=O)N[C@@H](CC(N)=O)C(=O)N2CCC[C@H]2C(=O)N[C@@H](CNC(=S)Nc2ccccc2Oc2ccccc2)C(=O)N[C@@H](CC(C)C)C(=O)N2C[C@H](O)C[C@H]2C(=O)N[C@@H](Cc2c[nH]c3ccccc23)C(=O)N[C@@H](CCN)C(=O)N[C@@H](Cc2cn(CC(=O)O)c3ccccc23)C(=O)N1C` [Example 1135] ({CH2CO}-Y[NMeA]NP[Dap](X43)L[Hyp]W[Dab][Trp(1-CH2COOH)][NMeNle][NMeNle]LCG-NH2; thioether N-14) as the compound, how does the pIC50 read?
The pIC50 was 8.31.

How did the pIC50 turn out when `CCCC[C@H]1C(=O)N(C)[C@@H](CCCC)C(=O)N[C@@H](CC(C)C)C(=O)N[C@H](C(=O)NCC(N)=O)CSCC(=O)N[C@@H](Cc2ccc(O)cc2)C(=O)N(C)[C@@H](C)C(=O)N[C@@H](CC(N)=O)C(=O)N2CCC[C@H]2C(=O)N[C@@H](CNC(=S)Nc2ccc(NC(=O)OC(C)(C)C)cc2)C(=O)N[C@@H](CC(C)C)C(=O)N2C[C@H](O)C[C@H]2C(=O)N[C@@H](Cc2c[nH]c3ccccc23)C(=O)N[C@@H](CCNC(=S)Nc2ccc(NC(=O)OC(C)(C)C)cc2)C(=O)N[C@@H](Cc2cn(CC(=O)O)c3ccccc23)C(=O)N1C` [Example 1041] ({CH2CO}-Y[NMeA]NP[Dap](X65)L[Hyp]W[Dab](X65)[Trp(1-CH2COOH)][NMeNle][NMeNle]LCG-NH2; thioether N-14) was run?
The pIC50 was 8.64.

`CCCC[C@H]1C(=O)N(C)[C@@H](CCCC)C(=O)N[C@@H](CC(C)C)C(=O)N[C@H](C(=O)NCC(N)=O)CSCC(=O)N[C@@H](Cc2ccc(O)cc2)C(=O)N(C)[C@@H](C)C(=O)N[C@@H](CC(N)=O)C(=O)N2CCC[C@H]2C(=O)N[C@@H](CNC(=O)c2ccc(F)c(C(F)(F)F)c2)C(=O)N[C@@H](CC(C)C)C(=O)N2C[C@H](O)C[C@H]2C(=O)N[C@@H](Cc2c[nH]c3ccccc23)C(=O)N[C@@H](CCNC(=O)c2ccc(F)c(C(F)(F)F)c2)C(=O)N[C@@H](Cc2cn(CC(=O)OC)c3ccccc23)C(=O)N1C` [Example 1007] ({CH2CO}-Y[NMeA]NP[Dap](Benzoyl(4-F,3-CF3))L[Hyp]W[Dab](Benzoyl(4-F,3-CF3))[Trp(1-CH2CO2Me)][NMeNle][NMeNle]LCG-NH2; thioether N-14) was tested. Which pIC50 did it give?
Its pIC50 is 7.49.

With `CCCC[C@H]1C(=O)N(C)[C@@H](CCCC)C(=O)N[C@@H](CC(C)C)C(=O)N[C@H](C(=O)NCC(N)=O)CSCC(=O)N[C@@H](Cc2ccc(O)cc2)C(=O)N(C)[C@@H](C)C(=O)N[C@@H](CC(N)=O)C(=O)N2CCC[C@H]2C(=O)N[C@@H](CNC(=O)c2cc3ccccc3o2)C(=O)N[C@@H](CC(C)C)C(=O)N2C[C@H](O)C[C@H]2C(=O)N[C@@H](Cc2c[nH]c3ccccc23)C(=O)N[C@@H](CCN)C(=O)N[C@@H](Cc2cn(CC(=O)O)c3ccccc23)C(=O)N1C` [Example 3034] ({CH2CO}-Y[NMeA]NP[Dap](Benzofuran(2-CO))L[Hyp]W[Dab][Trp(1-CH2COOH)][NMeNle][NMeNle]LCG-NH2; thioether N-14) as the compound, how does the pIC50 read?
The pIC50 was 8.49.

With `CCCC[C@H]1C(=O)N(C)[C@@H](CCCC)C(=O)N[C@@H](CC(C)C)C(=O)N[C@H](C(=O)NCC(N)=O)CSCC(=O)N[C@@H](Cc2ccc(O)cc2)C(=O)N(C)[C@@H](C)C(=O)N[C@@H](CC(N)=O)C(=O)N2CCC[C@H]2C(=O)N[C@@H](CNC(=S)Nc2cccc3ccccc23)C(=O)N[C@@H](CC(C)C)C(=O)N2C[C@H](O)C[C@H]2C(=O)N[C@@H](Cc2c[nH]c3ccccc23)C(=O)N[C@@H](CCNC(=S)Nc2cccc3ccccc23)C(=O)N[C@@H](Cc2cn(CC(=O)O)c3ccccc23)C(=O)N1C` [Example 3006] ({CH2CO}-Y[NMeA]NP[Dap](X5)L[Hyp]W[Dab](X5)[Trp(1-CH2COOH)][NMeNle][NMeNle]LCG-NH2; thioether N-14) as the compound, how does the pIC50 read?
Its pIC50 is 8.55.

`CCCC[C@H]1C(=O)N(C)[C@@H](CCCC)C(=O)N[C@@H](CC(C)C)C(=O)N[C@H](C(=O)NCC(N)=O)CSCC(=O)N[C@@H](Cc2ccc(O)cc2)C(=O)N(C)[C@@H](C)C(=O)N[C@@H](CC(N)=O)C(=O)N2CCC[C@H]2C(=O)N[C@@H](CNC(=O)Nc2ccc(Cl)cc2C(F)(F)F)C(=O)N[C@@H](CC(C)C)C(=O)N2C[C@H](O)C[C@H]2C(=O)N[C@@H](Cc2c[nH]c3ccccc23)C(=O)N[C@@H](CCNC(=O)Nc2ccc(Cl)cc2C(F)(F)F)C(=O)N[C@@H](Cc2cn(CC(=O)O)c3ccccc23)C(=O)N1C` [Example 1138] ({CH2CO}-Y[NMeA]NP[Dap]([CO-X92])L[Hyp]W[Dab]([CO-X92])[Trp(1-CH2COOH)][NMeNle][NMeNle]LCG-NH2; thioether N-14) was tested. Which pIC50 did it give?
The pIC50 was 8.01.

How did the pIC50 turn out when `CCCC[C@H]1C(=O)N(C)[C@@H](CCCC)C(=O)N[C@@H](CC(C)C)C(=O)N[C@H](C(=O)NCC(N)=O)CSCC(=O)N[C@@H](Cc2ccc(O)cc2)C(=O)N(C)[C@@H](C)C(=O)N[C@@H](CC(N)=O)C(=O)N2CCC[C@H]2C(=O)N[C@@H](CNC(=S)Nc2cccc3ccccc23)C(=O)N[C@@H](CC(C)C)C(=O)N2C[C@H](O)C[C@H]2C(=O)N[C@@H](Cc2c[nH]c3ccccc23)C(=O)N[C@@H](CCNC(=S)Nc2cccc3ccccc23)C(=O)N[C@@H](Cc2cn(CC(=O)O)c3ccccc23)C(=O)N1C` [Example 3033] ({CH2CO}-Y[NMeA]NP[Dap](X5)L[Hyp]W[Dab](X5)[Trp(1-CH2COOH)][NMeNle][NMeNle]LCG-NH2; thioether N-14) was run?
The pIC50 was 8.82.

How did the pIC50 turn out when `CCCC[C@H]1C(=O)N(C)[C@@H](CCCC)C(=O)N[C@@H](CC(C)C)C(=O)N[C@H](C(=O)NCC(N)=O)CSCC(=O)N[C@@H](Cc2ccc(O)cc2)C(=O)N(C)[C@@H](C)C(=O)N[C@@H](CC(N)=O)C(=O)N2CCC[C@H]2C(=O)N[C@@H](CNC(=S)Nc2ccc3oc(C)cc3c2)C(=O)N[C@@H](CC(C)C)C(=O)N2C[C@H](O)C[C@H]2C(=O)N[C@@H](Cc2c[nH]c3ccccc23)C(=O)N[C@@H](CCN)C(=O)N[C@@H](Cc2cn(CC(=O)O)c3ccccc23)C(=O)N1C` [Example 3055] ({CH2CO}-Y[NMeA]NP[Dap](X60)L[Hyp]W[Dab][Trp(1-CH2COOH)][NMeNle][NMeNle]LCG-NH2; thioether N-14) was run?
The pIC50 was 8.55.

With `CCCC[C@H]1C(=O)N(C)[C@@H](CCCC)C(=O)N[C@@H](CC(C)C)C(=O)N[C@H](C(=O)NCC(N)=O)CSCC(=O)N[C@@H](Cc2ccc(O)cc2)C(=O)N(C)[C@@H](C)C(=O)N[C@@H](CC(N)=O)C(=O)N2CCC[C@H]2C(=O)N[C@@H](CNC(=O)c2ccccc2-c2ccc(OC)cc2)C(=O)N[C@@H](CC(C)C)C(=O)N2C[C@H](O)C[C@H]2C(=O)N[C@@H](Cc2c[nH]c3ccccc23)C(=O)N[C@@H](CCN)C(=O)N[C@@H](Cc2cn(CC(=O)O)c3ccccc23)C(=O)N1C` [Example 1061] ({CH2CO}-Y[NMeA]NP[Dap](Benzoyl(2-(4-MeOPh)))L[Hyp]W[Dab][Trp(1-CH2COOH)][NMeNle][NMeNle]LCG-NH2; thioether N-14) as the compound, how does the pIC50 read?
The pIC50 was 8.40.

With `CCCC[C@H]1C(=O)N(C)[C@@H](CCCC)C(=O)N[C@@H](CC(C)C)C(=O)N[C@H](C(=O)NCC(N)=O)CSCC(=O)N[C@@H](Cc2ccc(O)cc2)C(=O)N(C)[C@@H](C)C(=O)N[C@@H](CC(N)=O)C(=O)N2CCC[C@H]2C(=O)N[C@@H](CNC(=S)Nc2c(Cl)c(Cl)cc(Cl)c2Cl)C(=O)N[C@@H](CC(C)C)C(=O)N2C[C@H](O)C[C@H]2C(=O)N[C@@H](Cc2c[nH]c3ccccc23)C(=O)N[C@@H](CCNC(=S)Nc2c(Cl)c(Cl)cc(Cl)c2Cl)C(=O)N[C@@H](Cc2cn(CC(=O)O)c3ccccc23)C(=O)N1C` [Example 1134] ({CH2CO}-Y[NMeA]NP[Dap](X67)L[Hyp]W[Dab](X67)[Trp(1-CH2COOH)][NMeNle][NMeNle]LCG-NH2; thioether N-14) as the compound, how does the pIC50 read?
The pIC50 was 8.62.

— patent publication US20220389061A1, “IMMUNOMODULATORS” (priority 2019, published 2022)
